# Reference: PubChem BioAssay AID1996
# Conditions: buffer; pH 7.4; 200.0 µM
row,Structure (SMILES),solubility kinetic [µg/mL]
1,O=S(=O)(c1cccs1)N1CCN(c2ccc(Cl)cc2)CC1,< 0.4
2,COC(=O)c1ccc(C(=O)O)nc1,21.5
3,Cc1ccc(NC(=S)Nc2ccc3[nH]c(=O)[nH]c3c2)cc1C,17.9
4,COC(=O)c1c(C)oc(C)c1S(=O)(=O)NCc1cccs1,43.4
5,COc1ccccc1CNC(=O)COC(=O)c1ccc(S(=O)(=O)N2CCCCC2)cc1,2.1
6,Cc1ccccc1NC(=O)COc1ccccc1C,2.1
7,Cc1cc[n+](CCc2ccccc2)cc1C.[Br-],> 43.8
8,COc1ccc(S(=O)(=O)NCCCN2CCOCC2)cc1F,> 49.9
9,Br.C=CCn1c(C)csc1=Nc1ccccc1C,10.9
10,Cc1onc(-c2ccccc2Cl)c1C(O)c1ccc(F)cc1 (stereo unspecified),46.6
11,Cc1nc2ccccn2c1C(=O)CSc1ccccc1,> 42.4
12,CCCN(CC1CC1)C(=O)COC(=O)c1ccc(C)cc1O,> 45.8
13,N#C/C(=C\c1ccc(F)cc1F)S(=O)(=O)c1ccccn1,42.4
14,COCCn1c(SCC(=O)NC(=O)NC2CCCCC2)nc2ccccc2c1=O,4.6
15,CC(=O)c1ccc(NC(=O)N2CCN(c3ccc(C)cc3)C(C)C2)cc1 (stereo unspecified),39.4
16,NC(=O)C1CCN(C(=O)c2cc3ccccc3cc2O)CC1,> 44.8
17,Nc1nc(NCc2ccco2)nc(NC2CCCCC2)c1[N+](=O)[O-],0.3
18,COc1cccc(NC(=O)CN2CCSc3ccccc32)c1,25.5
19,O=C(COC(=O)c1c[nH]c2ccccc12)Nc1ccccc1,1.9
20,Cc1cc(C)cc(NC(=O)Nc2cccnc2)c1,> 36.2
21,Nn1c(-c2ccccc2)nc2ccccc2c1=O,> 35.6
22,Cc1onc(C(=O)N2CCN(c3ccccc3)CC2)c1[N+](=O)[O-],> 47.4
23,Cc1ccc(Cl)cc1NS(=O)(=O)Cc1ccccc1,9
24,COc1ccccc1N1CCN(C(=S)NC(=O)/C=C/c2ccccc2)CC1,1.3
25,Cc1ccc(OCCN2CCOCC2)cc1C,> 35.3

row,Structure (SMILES),solubility kinetic [µg/mL]
1,O=C(NCCCN1CCCC1=O)c1cc2ccccc2o1,> 42.9
2,NS(=O)(=O)c1ccc(NC(=O)CSc2ncccn2)cc1,> 48.7
3,O=[N+]([O-])c1ccccc1S(=O)(=O)c1ccccc1[N+](=O)[O-],0.8
4,NC(=O)c1cc2c(s1)-c1cc(Cl)ccc1SC2,0.8
5,N#Cc1cccc(S(=O)(=O)NCc2nnc3ccccn23)c1,> 47
6,O=C(CSc1cccc[n+]1[O-])c1cccs1,28
7,Cc1ccc(C(=O)OCC(=O)NC2CCCCC2)s1,> 42.2
8,CC1CN(S(=O)(=O)c2cc(C(=O)NC(C)c3cccnc3)ccc2Cl)CC(C)O1 (stereo unspecified),> 65.7
9,O=C(CN1CCCCCC1)Nc1ccccc1Cl,24.9
10,O=C(COC(=O)/C=C/c1ccccc1)NCc1cccs1,17.7
11,Cl.Fc1ccc(-c2csc(Nc3ccccn3)n2)c(F)c1,< 0.2
12,COc1ccc(NC(=O)CSc2ccccc2)c([N+](=O)[O-])c1,3.4
13,O=C(c1ccc(F)cc1)N1CCOCC1,> 31.4
14,O=C(CNC(=O)c1sc2ccccc2c1Cl)NC1CC1,4
15,COCCCn1c(=O)cc(C)[nH]c1=S,> 32.1
16,S=C(c1ccc(-c2cccc(Cl)c2)o1)N1CCCCC1,6.1
17,O=C(NCC1CCCO1)c1cc2ccccc2cc1O (stereo unspecified),> 40.7
18,Nc1ccc(Cl)c(S(=O)(=O)Nc2cccc(Cl)c2)c1,43.4
19,CCCCc1ccc(NC(=O)NCc2cccnc2)cc1,21.1
20,CC1CN(C(=O)CCS(=O)(=O)c2ccccc2)CC(C)O1 (stereo unspecified),43.2
21,Clc1cccc(CNCC2CCCO2)c1Cl (stereo unspecified),33.3
22,CCOc1ncc(S(=O)(=O)N2CCN(CC)CC2)cc1C(=O)O,> 51.5
23,O=C(O)/C=C/C(=O)NCCc1ccccc1,> 32.9
24,CC(C)(C)c1ccc(-c2nc(N)nc(N)n2)cc1,0.9
25,O=C(NCc1ccc(F)cc1)C1CC(=O)N(Cc2ccco2)C1 (stereo unspecified),> 47.4

row,Structure (SMILES),solubility kinetic [µg/mL]
1,O=[N+]([O-])c1cccc2c(N3CCCC3)ccnc12,> 36.5
2,O=c1c2ccccc2ncn1-c1ccc(Cl)cc1,8.7
3,COCCNC(=O)C(=O)c1c(-c2ccccc2)[nH]c2ccccc12,> 48.4
4,O=C(/C=C/c1cccc(F)c1)N1CCN(c2ccccn2)CC1,39.4
5,CC(C)(C)C(=O)Nc1ccc(/C=C/C(=O)c2ccco2)cc1,28.9
6,CCc1cccc(C)c1NC(=S)N1CCCCC1c1cccnc1 (stereo unspecified),46.3
7,COc1ccc(C2=NCC(=S)Nc3ccc(Cl)cc32)cc1OC,< 0.4
8,Cc1ccc(OC(=O)c2ccncc2)c(C)c1,23.9
9,CCN(CC)S(=O)(=O)c1cc(NC(=O)CCc2c(C)noc2C)ccc1C,> 59
10,CCOC(=O)C1CCN(CC(=O)c2c(C)n(C)c3ccc(OC)cc23)CC1,> 55.9
11,CC(=O)c1ccc(OCCOc2ccc(C#N)cc2)cc1,6.8
12,O=C(COC(=O)c1ccc(S(=O)(=O)N2CCCCC2)cc1)NCc1ccccc1,3.6
13,O=C(NC1CCCCC1)C(=S)NCCc1ccccc1,1.4
14,COC(=O)c1ccc(NC(=O)c2ccc3nc(C)sc3c2)cc1,< 0.3
15,O=C(CSc1ccccc1)NCCc1ccccc1,39.4
16,Cc1ccc(NC(=O)C2CCN(C(=O)c3cccs3)CC2)c(C)c1,36.6
17,CCN1CCN(C(=O)c2cc3ccc(OC)cc3[nH]2)CC1,> 43.1
18,COc1ccc(NC(=O)CNC(=O)Cc2ccccc2)cc1,10.6
19,CCCc1cc(=O)oc2c(CN(CC)CC)c(O)c(Cl)cc12,> 48.6
20,O=C(Nc1ccc(CSc2ccccc2)cc1)c1ccco1,< 0.7
21,O=C(NCCCn1ccnc1)/C(=C/c1cccnc1)NC(=O)c1ccco1,> 54.8
22,O=[N+]([O-])c1cccnc1Sc1ccccc1Cl,1.7
23,COc1ccc2c(C)cc(SCC(=O)NC3CCCCC3)nc2c1,1.3
24,O=C1NC(Cc2c[nH]c3ccccc23)C(=O)N1Cc1ccccc1 (stereo unspecified),> 47.9
25,Cc1ccc(NC(=O)c2ccc3nc[nH]c3c2)nc1,> 37.8

row,Structure (SMILES),solubility kinetic [µg/mL]
1,CCCCOc1ccc(S(=O)(=O)N2CCCCC2)cc1,1.1
2,CCN(CC)S(=O)(=O)c1ccc(N2CC(C(=O)N3Cc4ccccc4CC3C(N)=O)CC2=O)cc1 (stereo unspecified),> 74.8
3,Cc1nc(SCC(=O)O)c(C#N)c(-c2ccco2)c1C(=O)N(C)C,> 51.8
4,NS(=O)(=O)c1ccc(NC(=O)CN2C(=O)CCC2=O)cc1,> 46.7
5,CCc1cc2ccccc2nc1Cl,< 0.4
6,COc1cccc(C(=O)Nc2cccc(NC(=O)c3cccs3)c2)c1,13.5
7,Cc1ccc(/C(N)=N/OC(=O)c2ccc3ccccc3c2)cc1,1
8,CN(CCC#N)S(=O)(=O)c1cc2c3c(c1)CCN3C(=O)CC2,> 47.9
9,CCOC(=O)c1c(C)nsc1NC(=O)C1CCCCC1,8.3
10,COc1ccc(C(=O)NC2CC(C)(C)NC(C)(C)C2)cc1OC,> 48.1
11,C=Cn1cc[n+](CC(=O)c2ccc(OC)cc2)c1.[Br-],45.2
12,Cc1ccnc(NC(=O)c2ccccc2NC(=O)c2ccccc2)c1,< 0.2
13,Cc1ccc(NC(=O)C2CCC(C(C)(C)C)CC2)cc1S(=O)(=O)N1CCOCC1 (stereo unspecified),3.5
14,O=C(NCC1OCCc2ccccc21)C1COc2ccccc2O1 (stereo unspecified),> 48.8
15,O=S(=O)(/C=C/c1ccccc1)N1CCc2ccccc2C1,< 0.6
16,CCN(CC)C(=O)c1sc(NC(=O)C(C)C)c(C#N)c1C,> 46.1
17,CCOC(=O)N1CCC(NC(=O)Cc2ccccc2)CC1,> 43.6
18,CC(C)C(=O)Nc1nc2cc3c(cc2s1)OCCO3,37.4
19,NS(=O)(=O)c1ccc(CNC(=O)C(c2ccccc2)c2ccccc2)cc1,56.1
20,O=C(OCC(=O)N1CCOCC1)c1ccccc1OCc1ccc(Cl)cc1,> 58.5
21,CCC1CCCCN1C(=O)CSc1nc2ncccc2[nH]1 (stereo unspecified),> 45.7
22,COc1cc(C(=O)OC(C)C(=O)N2CCCC2)cc2c1OCCO2 (stereo unspecified),> 50.3
23,S=c1[nH]nc(Nc2ccccc2Cl)s1,> 36.6
24,COc1cccc(-c2cc(C(=O)N3CCOCC3)no2)c1,> 43.2
25,O=S(=O)(CCN1CCSCC1)c1ccc(Cl)cc1,41.3

row,Structure (SMILES),solubility kinetic [µg/mL]
1,Cc1ccccc1NC1=NC(=S)N(CC(N)=O)C12CCOC(C)(C)C2 (stereo unspecified),> 54.1
2,Cc1ccc(C(=O)Nc2ccc(NC(=O)c3cccs3)cc2)c(C)c1,< 0.4
3,CSc1ncccc1C(=O)OCC(=O)NC1CCC(C)CC1 (stereo unspecified),16.4
4,Cc1ccc(C(=O)CSc2nc(C(C)C)nc3ccccc23)cc1,0.6
5,O=C(COC(=O)c1cccc(O)c1)NCc1ccc2c(c1)OCO2,> 49.4
6,O=C(Nc1cccnc1Cl)c1noc2c1CCc1ccccc1-2,< 0.2
7,Cc1ccc(Cl)cc1NC(=O)NCc1ccccn1,36.5
8,COc1ccc(CCNC(=O)c2c(C)nc3ccccn23)cc1,43
9,CCOC(=O)C1=C(C)NC(C)=C(C(=O)OCC)C1C(=O)OCC(=O)N1CCC(C)CC1,15.9
10,CC(C)c1ccc(S(=O)(=O)c2cnc(=S)[nH]c2N)cc1,0.9
11,O=C(O)/C=C/C(=O)NCCCc1ccccc1,19.8
12,O=C(C[n+]1ccc(/C=N/O)cc1)NCc1ccccc1.[Cl-],41.3
13,COc1cc2c(cc1OC)C(c1ccc(Cl)cc1)=NCC2,41.5
14,CC(=O)c1ccc(NC(=O)C(C)Nc2ccc(Cl)cc2)cc1 (stereo unspecified),40.9
15,CCC(CC)NC(=O)Nc1ccc(C)cc1,21.4
16,CCN(CC)C(=O)Oc1ccc(Cl)c2cccnc12,40.7
17,O=C(Cc1ccccc1F)NC1CCSc2ccccc21 (stereo unspecified),8.1
18,Cc1ccc(C)c(C(=O)NC(C)CCc2ccccc2)c1 (stereo unspecified),0.7
19,Nc1ccc(N2CCCC2)c(S(=O)(=O)Nc2cccc(C(F)(F)F)c2)c1,25.8
20,CC1(C)C(=O)Nc2ccccc2N1C(=O)COC(=O)Cc1ccc(Cl)c(Cl)c1,10.1
21,COc1cccc(N=Cc2c(O)n(Cc3ccco3)c(=O)[nH]c2=O)c1,6.1
